Measured values published in publication PMC12006963, “Application of Deuterium in an M1 Positive Allosteric Modulator Back-Up Program: The Discovery of VU6045422” (ACS Chemical Neuroscience, 2025).

What was measured:
[1] = target: Calcium Channel N-Type (Rattus norvegicus, UniProt Q02294); assay: Eurofins radioligand binding
[2] = system: Calcium Channel L-Type, Benzothiazepine; assay: Eurofins radioligand binding; parameters: species or system Rat
[3] = target: Cannabinoid CB1 (Homo sapiens, UniProt P21554); assay: Eurofins radioligand binding
[4] = target: Adrenergic α2A (Homo sapiens, UniProt P08913); assay: Eurofins radioligand binding
[5] = target: Transporter, Serotonin (SERT) (Homo sapiens, UniProt P31645); assay: Eurofins radioligand binding
Sequence of Transporter, Serotonin (SERT) (P31645 whole entry): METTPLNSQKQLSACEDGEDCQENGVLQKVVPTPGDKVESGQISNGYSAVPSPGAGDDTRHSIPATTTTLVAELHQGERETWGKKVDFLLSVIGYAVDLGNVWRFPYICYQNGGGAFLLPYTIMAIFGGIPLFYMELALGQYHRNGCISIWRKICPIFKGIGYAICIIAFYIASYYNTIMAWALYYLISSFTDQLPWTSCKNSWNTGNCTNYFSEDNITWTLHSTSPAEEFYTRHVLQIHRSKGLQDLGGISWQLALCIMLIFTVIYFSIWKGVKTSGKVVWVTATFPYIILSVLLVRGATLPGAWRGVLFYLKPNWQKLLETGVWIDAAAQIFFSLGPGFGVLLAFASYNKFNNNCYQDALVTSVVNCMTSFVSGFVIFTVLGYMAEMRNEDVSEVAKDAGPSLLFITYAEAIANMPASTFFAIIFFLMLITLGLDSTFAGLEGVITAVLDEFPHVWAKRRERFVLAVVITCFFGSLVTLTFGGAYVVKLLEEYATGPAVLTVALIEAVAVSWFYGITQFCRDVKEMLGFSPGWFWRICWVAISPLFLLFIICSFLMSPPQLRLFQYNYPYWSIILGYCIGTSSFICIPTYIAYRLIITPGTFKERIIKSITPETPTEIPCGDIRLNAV

[6] = target: Estrogen ERα (Homo sapiens, UniProt P03372); assay: Eurofins radioligand binding
[7] = target: hERG potassium channel (Homo sapiens, UniProt Q12809); assay: Eurofins radioligand binding
[8] = target: Adrenergic α1B (Homo sapiens, UniProt P35368); assay: Eurofins radioligand binding
Sequence of Adrenergic α1B (P35368 whole entry): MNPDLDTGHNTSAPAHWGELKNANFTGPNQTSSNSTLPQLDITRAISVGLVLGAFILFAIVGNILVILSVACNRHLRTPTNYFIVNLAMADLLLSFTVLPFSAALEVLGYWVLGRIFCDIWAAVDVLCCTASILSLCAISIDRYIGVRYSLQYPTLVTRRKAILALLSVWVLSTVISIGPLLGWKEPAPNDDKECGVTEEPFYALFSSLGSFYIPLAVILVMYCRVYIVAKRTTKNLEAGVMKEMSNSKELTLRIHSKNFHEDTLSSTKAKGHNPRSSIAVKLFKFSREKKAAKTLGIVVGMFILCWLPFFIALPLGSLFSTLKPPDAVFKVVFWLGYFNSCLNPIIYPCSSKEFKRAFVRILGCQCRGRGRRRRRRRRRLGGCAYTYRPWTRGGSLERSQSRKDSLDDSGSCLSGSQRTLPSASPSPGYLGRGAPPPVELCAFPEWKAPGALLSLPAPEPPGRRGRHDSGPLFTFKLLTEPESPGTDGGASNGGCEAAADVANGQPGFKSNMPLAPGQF

[9] = system: Imidazoline I2, Central; assay: Eurofins radioligand binding; parameters: species or system Rat
[10] = system: Rolipram; assay: Eurofins radioligand binding; parameters: species or system Rat
[11] = target: Opiate δ1 (OP1, DOP) (Homo sapiens, UniProt P41143); assay: Eurofins radioligand binding
Sequence of Opiate δ1 (OP1, DOP) (P41143 whole entry): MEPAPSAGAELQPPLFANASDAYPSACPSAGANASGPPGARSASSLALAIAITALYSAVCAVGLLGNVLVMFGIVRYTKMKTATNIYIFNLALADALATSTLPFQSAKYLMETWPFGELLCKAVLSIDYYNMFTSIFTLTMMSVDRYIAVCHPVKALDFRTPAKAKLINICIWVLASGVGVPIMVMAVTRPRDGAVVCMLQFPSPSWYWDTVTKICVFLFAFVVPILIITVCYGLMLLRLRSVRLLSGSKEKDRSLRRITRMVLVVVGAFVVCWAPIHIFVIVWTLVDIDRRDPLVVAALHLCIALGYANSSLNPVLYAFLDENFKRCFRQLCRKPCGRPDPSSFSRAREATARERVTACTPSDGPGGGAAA

[12] = target: Epidermal Growth Factor (EGF) (Homo sapiens, UniProt P00533); assay: Eurofins radioligand binding
Sequence of Epidermal Growth Factor (EGF) (P00533 25-1210): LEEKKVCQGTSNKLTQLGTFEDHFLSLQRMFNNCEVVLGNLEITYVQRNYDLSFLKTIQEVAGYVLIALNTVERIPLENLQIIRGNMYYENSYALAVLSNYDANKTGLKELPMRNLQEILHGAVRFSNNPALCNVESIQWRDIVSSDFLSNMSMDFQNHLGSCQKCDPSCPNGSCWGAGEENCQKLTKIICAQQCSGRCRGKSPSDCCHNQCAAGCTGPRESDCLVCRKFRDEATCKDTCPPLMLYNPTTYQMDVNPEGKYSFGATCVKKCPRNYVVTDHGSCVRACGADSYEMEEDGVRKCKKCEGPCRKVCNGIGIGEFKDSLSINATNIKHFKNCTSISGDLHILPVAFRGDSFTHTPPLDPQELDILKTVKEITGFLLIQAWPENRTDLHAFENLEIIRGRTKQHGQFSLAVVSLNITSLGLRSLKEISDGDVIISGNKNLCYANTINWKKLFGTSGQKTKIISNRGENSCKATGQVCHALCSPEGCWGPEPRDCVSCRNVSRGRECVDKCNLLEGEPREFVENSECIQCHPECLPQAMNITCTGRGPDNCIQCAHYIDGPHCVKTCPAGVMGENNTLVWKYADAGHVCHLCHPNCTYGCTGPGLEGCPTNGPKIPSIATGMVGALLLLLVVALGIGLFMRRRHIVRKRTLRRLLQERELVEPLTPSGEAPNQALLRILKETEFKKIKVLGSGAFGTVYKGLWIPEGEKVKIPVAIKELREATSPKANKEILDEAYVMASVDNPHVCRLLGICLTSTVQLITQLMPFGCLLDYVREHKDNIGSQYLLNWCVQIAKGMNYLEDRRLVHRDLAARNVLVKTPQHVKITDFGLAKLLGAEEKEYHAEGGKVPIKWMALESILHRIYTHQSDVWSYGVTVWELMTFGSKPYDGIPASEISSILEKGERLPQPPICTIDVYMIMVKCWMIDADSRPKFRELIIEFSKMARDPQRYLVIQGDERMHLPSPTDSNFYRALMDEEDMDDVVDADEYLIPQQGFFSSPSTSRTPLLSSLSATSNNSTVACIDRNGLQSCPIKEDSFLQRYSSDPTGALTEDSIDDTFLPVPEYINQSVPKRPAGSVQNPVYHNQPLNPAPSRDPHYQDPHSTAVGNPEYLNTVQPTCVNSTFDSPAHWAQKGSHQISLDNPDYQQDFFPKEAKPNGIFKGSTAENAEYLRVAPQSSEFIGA

[13] = Dog MTD with pharmacokinetics study; assay type: in vivo; settings: for AUC / Cmax: dog MTD, plasma
From the text: To this end, we prepared a 200 g lot of PAM 5 and performed, in parallel, a dog maximum tolerated dose (MTD) with a pharmacokinetics study and a 14-day rat exploratory toxicology and toxicokinetic study, quantifying plasma Cmax and AUC for both parent 5 and metabolite 6. […] Moreover, while exposure increased with dose, it was nonlinear. […] The series was terminated based on (1) poor and less than dose-proportional increases in systemic exposure, (2) lack of a kinetic isotope effect to diminish production of 6 in dogs and rats, and (3) strong likelihood of even higher concentrations of 6 to be present in man.

[14] = target: Adenosine A2A (Homo sapiens, UniProt P29274); assay: Eurofins radioligand binding
Sequence of Adenosine A2A (P29274 whole entry): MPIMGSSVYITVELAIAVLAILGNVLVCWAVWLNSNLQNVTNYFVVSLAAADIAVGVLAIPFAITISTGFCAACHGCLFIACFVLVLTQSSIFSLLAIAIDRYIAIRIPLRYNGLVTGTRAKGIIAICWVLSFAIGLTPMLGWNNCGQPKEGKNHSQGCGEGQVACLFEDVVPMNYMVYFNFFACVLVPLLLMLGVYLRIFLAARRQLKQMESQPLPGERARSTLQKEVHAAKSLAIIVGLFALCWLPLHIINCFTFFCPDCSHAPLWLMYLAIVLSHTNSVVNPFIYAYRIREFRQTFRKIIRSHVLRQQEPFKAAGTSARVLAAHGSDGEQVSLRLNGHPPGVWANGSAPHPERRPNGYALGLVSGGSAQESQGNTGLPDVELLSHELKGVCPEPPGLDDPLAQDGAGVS

[15] = system: CYP; assay: Time-dependent CYP inhibition; assay type: in vitro ADME; settings: in words
[16] = system: Glutamate, Kainate; assay: Eurofins radioligand binding; parameters: species or system Rat
[17] = target: Transporter, Dopamine (DAT) (Homo sapiens, UniProt Q01959); assay: Eurofins radioligand binding
[18] = target: Bradykinin B2 (Homo sapiens, UniProt P30411); assay: Eurofins radioligand binding
[19] = target: Opiate μ (OP3, MOP) (Homo sapiens, UniProt P35372); assay: Eurofins radioligand binding
Sequence of Opiate μ (OP3, MOP) (P35372 whole entry): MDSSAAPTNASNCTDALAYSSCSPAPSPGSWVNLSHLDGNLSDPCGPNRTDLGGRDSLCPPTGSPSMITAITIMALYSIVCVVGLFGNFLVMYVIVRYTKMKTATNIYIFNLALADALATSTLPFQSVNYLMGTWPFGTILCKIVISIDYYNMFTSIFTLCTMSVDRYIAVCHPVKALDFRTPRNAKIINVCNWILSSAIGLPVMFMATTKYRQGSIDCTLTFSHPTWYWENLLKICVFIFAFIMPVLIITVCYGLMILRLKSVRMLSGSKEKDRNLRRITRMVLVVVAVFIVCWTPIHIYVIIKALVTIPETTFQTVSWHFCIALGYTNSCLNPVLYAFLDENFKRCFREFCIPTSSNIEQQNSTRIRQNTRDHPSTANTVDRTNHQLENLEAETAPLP

[20] = target: Glucocorticoid (Homo sapiens, UniProt P04150); assay: Eurofins radioligand binding
[21] = target: Dopamine D3 (Homo sapiens, UniProt P35462); assay: Eurofins radioligand binding
Sequence of Dopamine D3 (P35462 whole entry, canonical isoform): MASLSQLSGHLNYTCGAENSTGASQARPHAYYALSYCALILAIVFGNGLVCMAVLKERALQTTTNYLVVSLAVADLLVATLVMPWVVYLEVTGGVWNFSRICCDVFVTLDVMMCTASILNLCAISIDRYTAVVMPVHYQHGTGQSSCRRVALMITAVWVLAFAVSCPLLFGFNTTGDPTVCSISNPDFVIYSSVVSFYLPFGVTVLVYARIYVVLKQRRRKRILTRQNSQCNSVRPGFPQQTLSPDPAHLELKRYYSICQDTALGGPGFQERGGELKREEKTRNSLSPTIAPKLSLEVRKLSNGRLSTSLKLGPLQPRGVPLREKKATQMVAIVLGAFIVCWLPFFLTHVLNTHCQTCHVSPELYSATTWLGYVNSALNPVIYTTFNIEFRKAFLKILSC

[22] = target: CYP 3A5 (Homo sapiens, UniProt P20815); assay: CYP isoform contribution to metabolism: 3A5; assay type: in vitro ADME
[23] = system: Glutamate, NMDA, Phencyclidine; assay: Eurofins radioligand binding; parameters: species or system Rat
[24] = target: Serotonin (5-HT1A) (Homo sapiens, UniProt P08908); assay: Eurofins radioligand binding
Sequence of Serotonin (5-HT1A) (P08908 whole entry): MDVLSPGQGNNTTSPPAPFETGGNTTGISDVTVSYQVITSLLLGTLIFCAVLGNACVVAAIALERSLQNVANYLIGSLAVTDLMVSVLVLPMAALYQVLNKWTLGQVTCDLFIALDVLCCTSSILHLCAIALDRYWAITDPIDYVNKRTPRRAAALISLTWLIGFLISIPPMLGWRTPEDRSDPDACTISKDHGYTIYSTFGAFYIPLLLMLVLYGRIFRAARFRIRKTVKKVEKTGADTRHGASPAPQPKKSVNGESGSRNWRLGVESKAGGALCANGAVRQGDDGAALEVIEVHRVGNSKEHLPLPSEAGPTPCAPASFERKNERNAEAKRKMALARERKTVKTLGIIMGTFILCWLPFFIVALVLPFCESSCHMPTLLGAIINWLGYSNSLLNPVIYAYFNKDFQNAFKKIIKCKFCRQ

[25] = target: Prostanoid EP4 (Homo sapiens, UniProt P35408); assay: Eurofins radioligand binding
[26] = target: Histamine H3 (Homo sapiens, UniProt Q9Y5N1); assay: Eurofins radioligand binding
[27] = target: Tachykinin NK1 (Homo sapiens, UniProt P25103); assay: Eurofins radioligand binding
Sequence of Tachykinin NK1 (P25103 whole entry): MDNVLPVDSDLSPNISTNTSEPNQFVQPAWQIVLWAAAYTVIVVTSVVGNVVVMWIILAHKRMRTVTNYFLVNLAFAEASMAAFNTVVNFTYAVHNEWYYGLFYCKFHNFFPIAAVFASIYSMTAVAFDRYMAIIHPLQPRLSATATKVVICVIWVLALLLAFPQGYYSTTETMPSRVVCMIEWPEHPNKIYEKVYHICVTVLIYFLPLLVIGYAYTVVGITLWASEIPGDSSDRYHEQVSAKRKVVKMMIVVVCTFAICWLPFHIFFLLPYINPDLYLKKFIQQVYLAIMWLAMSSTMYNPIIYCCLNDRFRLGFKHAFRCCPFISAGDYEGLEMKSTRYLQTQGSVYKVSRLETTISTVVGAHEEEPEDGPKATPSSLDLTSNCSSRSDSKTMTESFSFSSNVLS

## [2H]C1([2H])c2ncccc2C(=O)N1Cc1c(F)cc(-c2cccc3nn(C([2H])([2H])[2H])cc23)cc1F [compound 5]
[1]
  inhibition at 10 µM: -2%
[2]
  % Inhibition at 10 µM: 15%
[3]
  inhibition at 10 µM: -3%
[4]
  inhibition at 10 µM: 58%
[5]
  inhibition at 10 µM: -4%
[6]
  inhibition at 10 µM: 10%
[7]
  inhibition at 10 µM: 9%
[8]
  inhibition at 10 µM: 10%
[9]
  % Inhibition at 10 µM: 59%
[10]
  % Inhibition at 10 µM: 10%
[11]
  inhibition at 10 µM: 1%
[12]
  inhibition at 10 µM: 3%
[13]; 30 mg/kg PO of 5
  AUC: 34900 ng·h/mL
  Cmax: 2400 ng/mL
[13]; 300 mg/kg PO of 5
  AUC: 68000 ng·h/mL
  Cmax: 3620 ng/mL
[13]; 1000 mg/kg PO of 5
  AUC: 103000 ng·h/mL
  Cmax: 5560 ng/mL
[13]; dog, in vivo, po
  tolerability in dog MTD: well-tolerated
[14]
  inhibition at 10 µM: 7%
[15]
  time-dependent CYP inhibition liability: no time-dependent CYP inhibition or CYP induction liabilities
[16]
  % Inhibition at 10 µM: 13%
[17]
  inhibition at 10 µM: 32%
[18]
  inhibition at 10 µM: 2%
[19]
  inhibition at 10 µM: 5%
[20]
  inhibition at 10 µM: 13%
[21]
  inhibition at 10 µM: -1%
[22]
  contribution of CYP 3A5 to metabolism: 5.8%
[23]
  % Inhibition at 10 µM: -1%
[24]
  inhibition at 10 µM: -5%
[25]
  inhibition at 10 µM: -3%
[26]
  inhibition at 10 µM: 5%
[27]
  inhibition at 10 µM: 4%
